Measured values taken from patent US9809623B2, “α4β7 peptide monomer and dimer antagonists” (Protagonist Therapeutics, Inc., priority 2014, dated 2017).
Read-outs that look alike come from different tables or passages of the source. Numbered stars: 1 amine (or outer) side, 2 acyl side, 3 side chain; on linkers, the order of the positions; unused ones are H or OH. Bridge positions count the residues as written; N and C are the ends. Square brackets hold non-standard residues; d marks the D form. Peptide text beside a SMILES is read from it. I, II: the chains in the order shown. Phe(4-COOH) = N[C@@H](Cc1ccc(C(=O)O)cc1)C(=O)O; Phe(4-tBu) = CC(C)(C)c1ccc(C[C@H](N)C(=O)O)cc1; Bip = N[C@@H](Cc1ccc(-c2ccccc2)cc1)C(=O)O; Diglycolyl = O=C(COCC(=O)[*:2])[*:1]; NMeR = CN[C@@H](CCCNC(=N)N)C(=O)O; β3hE = N[C@@H](CCC(=O)O)CC(=O)O; NMeK = CN[C@@H](CCCCN)C(=O)O; Pen = CC(C)(S)[C@H](N)C(=O)O; dNMeK = CN[C@H](CCCCN)C(=O)O

What was measured:
α4β1 = molecular target: T1, α4β1 (Homo sapiens, UniProt P05556+P13612, DEL729-798); test: α4β1-VCAM Competition ELISA; assay type: binding
T1 construct: purchased R&D Systems 5668-A4
T1 sequence (P13612 34-977 limits assumed, stated change not applied): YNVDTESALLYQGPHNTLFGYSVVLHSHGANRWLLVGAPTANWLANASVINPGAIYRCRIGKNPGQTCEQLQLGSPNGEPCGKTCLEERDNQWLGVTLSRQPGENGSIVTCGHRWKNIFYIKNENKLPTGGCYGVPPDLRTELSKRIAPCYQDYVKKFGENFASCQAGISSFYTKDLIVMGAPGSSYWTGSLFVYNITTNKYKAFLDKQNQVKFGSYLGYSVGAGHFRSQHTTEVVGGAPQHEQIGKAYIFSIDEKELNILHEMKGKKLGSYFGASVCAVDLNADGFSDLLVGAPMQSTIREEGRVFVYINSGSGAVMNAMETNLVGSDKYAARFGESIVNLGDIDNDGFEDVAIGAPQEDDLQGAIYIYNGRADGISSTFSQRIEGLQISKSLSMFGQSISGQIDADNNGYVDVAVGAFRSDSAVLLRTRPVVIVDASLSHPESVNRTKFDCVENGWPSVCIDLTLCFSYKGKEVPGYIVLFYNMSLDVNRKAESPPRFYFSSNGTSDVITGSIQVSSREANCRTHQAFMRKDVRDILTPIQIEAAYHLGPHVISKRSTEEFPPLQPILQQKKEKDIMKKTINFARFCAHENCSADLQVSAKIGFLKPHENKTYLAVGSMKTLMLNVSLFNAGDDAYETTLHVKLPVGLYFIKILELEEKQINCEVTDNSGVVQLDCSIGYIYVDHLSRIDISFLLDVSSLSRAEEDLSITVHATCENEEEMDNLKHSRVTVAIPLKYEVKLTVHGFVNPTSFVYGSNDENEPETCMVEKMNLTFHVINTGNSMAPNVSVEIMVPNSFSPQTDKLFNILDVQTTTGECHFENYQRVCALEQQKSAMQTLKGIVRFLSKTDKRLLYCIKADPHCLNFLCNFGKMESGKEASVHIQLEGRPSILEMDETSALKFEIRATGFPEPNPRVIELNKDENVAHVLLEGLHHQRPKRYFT
T1 sequence (P05556 21-728 limits assumed, stated change not applied): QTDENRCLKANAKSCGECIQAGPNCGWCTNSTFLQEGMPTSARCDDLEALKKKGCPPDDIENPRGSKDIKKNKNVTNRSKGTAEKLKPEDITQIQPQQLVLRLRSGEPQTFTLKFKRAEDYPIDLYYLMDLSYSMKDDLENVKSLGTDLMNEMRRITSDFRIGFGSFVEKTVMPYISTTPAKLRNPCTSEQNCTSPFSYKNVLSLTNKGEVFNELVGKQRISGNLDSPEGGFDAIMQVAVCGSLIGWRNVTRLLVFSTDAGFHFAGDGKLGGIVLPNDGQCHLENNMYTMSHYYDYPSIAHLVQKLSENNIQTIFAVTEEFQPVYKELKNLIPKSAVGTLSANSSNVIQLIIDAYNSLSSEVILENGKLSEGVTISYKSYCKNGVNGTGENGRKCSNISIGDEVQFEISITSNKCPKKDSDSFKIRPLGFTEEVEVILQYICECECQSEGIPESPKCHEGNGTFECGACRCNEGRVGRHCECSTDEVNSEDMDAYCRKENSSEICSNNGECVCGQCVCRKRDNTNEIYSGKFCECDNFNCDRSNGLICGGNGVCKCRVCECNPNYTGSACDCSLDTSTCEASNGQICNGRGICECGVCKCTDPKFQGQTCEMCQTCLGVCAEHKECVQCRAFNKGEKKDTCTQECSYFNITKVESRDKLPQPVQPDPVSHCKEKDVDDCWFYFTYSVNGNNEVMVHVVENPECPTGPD
Procedure, shortened: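 ELISA plates were coated with VCAM-1 Fc at 400 ng/well. Peptide dilutions (highest final 100 μM) and 60 nM α4β1 were incubated 2 h at 37 °C in pH 7.6 Tris buffer containing 1 mM Mn2+ or Mg2+. Integrin retained on the plate was detected by 9F10 antibody, then HRP secondary, with TMB absorbance at 450 nm.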

[1] = Simulated Intestinal Fluid (SIF) Stability Assay; assay type: in vitro ADME, porcine; settings: for half-life at 22 μM: pig, simulated intestinal fluid (SIF) with 1% porcine pancreatin
Procedure, shortened: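 Intestinal stability: percent peptide remaining over time, by LC-MS/MS peak-area ratio to internal standard, fitted to first-order decay for half-life. Conditions: 22 μM peptide, 1% pancreatin in pH 6.5 blank FASSIF, 37 °C.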

α4β7 = α4β7 (Homo sapiens, UniProt P13612+P26010); test: α4β7-MAdCAM Cell Adhesion Assay (RPMI 8866 human cells); assay type: cell-based; parameters: host or cells: RPMI 8866 human B lymphoblastoid cells
α4β7, sequence (P13612 34-1032): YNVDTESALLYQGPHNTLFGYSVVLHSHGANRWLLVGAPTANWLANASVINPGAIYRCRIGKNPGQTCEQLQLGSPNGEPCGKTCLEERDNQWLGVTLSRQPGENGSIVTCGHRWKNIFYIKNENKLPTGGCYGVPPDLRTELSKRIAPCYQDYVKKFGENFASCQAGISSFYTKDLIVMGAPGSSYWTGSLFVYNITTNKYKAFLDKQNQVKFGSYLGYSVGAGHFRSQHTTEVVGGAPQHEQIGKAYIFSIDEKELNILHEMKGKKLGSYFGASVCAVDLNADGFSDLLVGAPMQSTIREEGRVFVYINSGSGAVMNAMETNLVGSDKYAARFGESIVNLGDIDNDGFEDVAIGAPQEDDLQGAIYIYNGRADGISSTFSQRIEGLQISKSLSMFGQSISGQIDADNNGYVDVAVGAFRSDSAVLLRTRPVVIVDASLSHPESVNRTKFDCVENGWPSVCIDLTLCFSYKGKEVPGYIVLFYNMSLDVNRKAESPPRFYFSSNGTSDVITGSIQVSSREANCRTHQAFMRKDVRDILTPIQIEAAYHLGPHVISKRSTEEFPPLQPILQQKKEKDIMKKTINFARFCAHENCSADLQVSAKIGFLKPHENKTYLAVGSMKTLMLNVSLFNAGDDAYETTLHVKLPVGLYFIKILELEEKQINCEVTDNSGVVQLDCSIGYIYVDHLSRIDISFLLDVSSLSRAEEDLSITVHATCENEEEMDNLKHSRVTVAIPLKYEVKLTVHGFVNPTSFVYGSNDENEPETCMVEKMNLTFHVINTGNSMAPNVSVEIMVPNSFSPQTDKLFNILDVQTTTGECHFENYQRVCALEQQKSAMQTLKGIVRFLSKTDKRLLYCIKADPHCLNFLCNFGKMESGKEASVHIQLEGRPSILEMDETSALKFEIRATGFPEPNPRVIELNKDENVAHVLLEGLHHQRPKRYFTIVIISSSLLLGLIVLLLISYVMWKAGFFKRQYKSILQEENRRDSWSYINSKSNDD
α4β7, sequence (P26010 20-798): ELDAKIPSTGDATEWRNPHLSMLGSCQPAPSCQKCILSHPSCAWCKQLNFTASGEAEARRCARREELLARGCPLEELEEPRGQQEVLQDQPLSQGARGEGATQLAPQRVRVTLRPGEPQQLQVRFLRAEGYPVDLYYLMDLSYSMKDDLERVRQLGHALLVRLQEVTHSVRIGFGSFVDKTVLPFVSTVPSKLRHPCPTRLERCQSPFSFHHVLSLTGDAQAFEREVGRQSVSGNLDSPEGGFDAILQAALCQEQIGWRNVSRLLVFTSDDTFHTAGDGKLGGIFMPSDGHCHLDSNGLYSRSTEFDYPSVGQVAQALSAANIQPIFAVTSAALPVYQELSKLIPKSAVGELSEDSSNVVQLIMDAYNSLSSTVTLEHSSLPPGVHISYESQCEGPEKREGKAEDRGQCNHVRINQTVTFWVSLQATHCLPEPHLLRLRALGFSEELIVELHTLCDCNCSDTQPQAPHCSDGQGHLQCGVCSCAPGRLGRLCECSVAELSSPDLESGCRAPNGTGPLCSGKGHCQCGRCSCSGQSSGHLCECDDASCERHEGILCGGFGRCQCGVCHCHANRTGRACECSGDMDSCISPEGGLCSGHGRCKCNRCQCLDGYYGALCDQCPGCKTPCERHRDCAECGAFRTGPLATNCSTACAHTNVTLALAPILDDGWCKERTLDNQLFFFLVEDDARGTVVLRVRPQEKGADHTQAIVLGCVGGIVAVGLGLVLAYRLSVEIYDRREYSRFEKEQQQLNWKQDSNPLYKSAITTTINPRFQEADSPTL
Procedure, shortened: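 Adhesion read-out: MTT absorbance at 570 nm minus no-cell wells, after three washes. Plates coated with rh MAdCAM-1/Fc received peptide dilutions plus 200,000 RPMI 8866 cells in Mn2+ (1 mM)-supplemented DMEM, 0.1% BSA, HEPES pH 7, incubated 30-45 min, 37 °C.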

[2] = Table 3-B, Selectivity (α4β1), range classes, read-out: α4β1 ELISA IC50
[3] = pH 6.5, Table 3-B, > means experiment was stopped at that time and half life was not reached, read-out: Stabilty SIF t1/2
[4] = Table 3-B, Potency (α4β7), range classes, read-out: α4β7 cell (Hu) IC50
[5] = Table 4-B, read-out: ELISA_α4β1 IC50
[6] = pH 6.5, Table 4-C, t1/2, > means assay stopped at that time, read-out: SIF (porcine) Min
[7] = Table 4-B, read-out: Cell Adhesion α4β7 IC50
[8] = pH 6.5, Table 3-B, alone or in parentheses after >360, read-out: Stabilty SIF t1/2, in hr (converted)

SMILES	IC50 (α4β1; [2])	half-life at 22 μM [1, 3]	IC50 (α4β7; [4])	IC50 (α4β1; [5])	half-life at 22 μM [1, 6]	IC50 (α4β7; [7])	SIF (porcine), printed in hr in the cell ([1]; Table 4-C, t1/2)	half-life at 22 μM [1, 8]
CC(=O)N[C@@H]1C(=O)N(C)[C@@H](CCCNC(=N)N)C(=O)N[C@@H](CO)C(=O)N[C@@H](CC(=O)O)C(=O)N[C@@H]([C@@H](C)O)C(=O)N[C@@H](CC(C)C)C(=O)N[C@H](C(=O)N[C@@H](Cc2ccc(-c3ccccc3)cc2)C(=O)N[C@@H](CCC(=O)O)CC(=O)N(C)[C@@H](CCCCNC(=O)COCC(=O)NCCCC[C@@H](C(N)=O)N(C)C(=O)C[C@H](CCC(=O)O)NC(=O)[C@H](Cc2ccc(-c3ccccc3)cc2)NC(=O)[C@H]2NC(=O)[C@H](CC(C)C)NC(=O)[C@H]([C@@H](C)O)NC(=O)[C@H](CC(=O)O)NC(=O)[C@H](CO)NC(=O)[C@H](CCCNC(=N)N)N(C)C(=O)[C@@H](NC(C)=O)C(C)(C)SSC2(C)C)C(N)=O)C(C)(C)SSC1(C)C [compound 150] (I: Ac-[Pen][NMeR]SDTL[Pen][Bip][β3hE][NMeK]-NH2 / II: Ac-[Pen][NMeR]SDTL[Pen][Bip][β3hE][NMeK]-NH2; disulfide I:1-I:7, II:1-II:7; linker I:10-II:10 via Diglycolyl)	1000 to 10000 nM	> 5 h	< 10 nM					
CC(=O)N[C@@H]1C(=O)N(C)[C@@H](CCCNC(=N)N)C(=O)N[C@@H](CO)C(=O)N[C@@H](CC(=O)O)C(=O)N[C@@H]([C@@H](C)O)C(=O)N[C@@H](CC(C)C)C(=O)N[C@H](C(=O)N[C@@H](Cc2c[nH]c3ccccc23)C(=O)N[C@@H](CCC(=O)O)C(=O)N(C)[C@@H](CCCCNC(=O)COCC(=O)NCCCC[C@@H](C(N)=O)N(C)C(=O)[C@H](CCC(=O)O)NC(=O)[C@H](Cc2c[nH]c3ccccc23)NC(=O)[C@H]2NC(=O)[C@H](CC(C)C)NC(=O)[C@H]([C@@H](C)O)NC(=O)[C@H](CC(=O)O)NC(=O)[C@H](CO)NC(=O)[C@H](CCCNC(=N)N)N(C)C(=O)[C@@H](NC(C)=O)C(C)(C)SSC2(C)C)C(N)=O)C(C)(C)SSC1(C)C [compound 215, [Ac-Pen-(N-Me-Arg)-Ser-Asp-Thr-Leu-Pen-Trp-Glu-(N-Me-Lys)-NH2]2-DIG] (I: Ac-[Pen][NMeR]SDTL[Pen]WE[NMeK]-NH2 / II: Ac-[Pen][NMeR]SDTL[Pen]WE[NMeK]-NH2; disulfide I:1-I:7, II:1-II:7 (inferred); linker I:10-II:10 via Diglycolyl (inferred))				270 nM	> 6 h	3 nM		
CC(=O)N[C@@H]1C(=O)N(C)[C@@H](CCCNC(=N)N)C(=O)N[C@@H](CO)C(=O)N[C@@H](CC(=O)O)C(=O)N[C@@H]([C@@H](C)O)C(=O)N[C@@H](CC(C)C)C(=O)N[C@H](C(=O)N[C@@H](Cc2ccc(C(C)(C)C)cc2)C(=O)N[C@@H](CCC(=O)O)CC(=O)N[C@H](CCCCNC(=O)COCC(=O)NCCCC[C@@H](NC(=O)C[C@H](CCC(=O)O)NC(=O)[C@H](Cc2ccc(C(C)(C)C)cc2)NC(=O)[C@H]2NC(=O)[C@H](CC(C)C)NC(=O)[C@H]([C@@H](C)O)NC(=O)[C@H](CC(=O)O)NC(=O)[C@H](CO)NC(=O)[C@H](CCCNC(=N)N)N(C)C(=O)[C@@H](NC(C)=O)C(C)(C)SSC2(C)C)C(N)=O)C(N)=O)C(C)(C)SSC1(C)C [compound 218, [Ac-Pen-(N-Me-Arg)-Ser-Asp-Thr-Leu-Pen-Phe(4-tBu)-(β-homoGlu)-(D-Lys)-NH2]2-DIG] (I: Ac-[Pen][NMeR]SDTL[Pen][Phe(4-tBu)][β3hE][dK]-NH2 / II: Ac-[Pen][NMeR]SDTL[Pen][Phe(4-tBu)][β3hE][dK]-NH2; disulfide I:1-I:7, II:1-II:7; linker I:10-II:10 via Diglycolyl)				490 nM		0.78 nM	11 h	
CC(=O)N[C@@H]1C(=O)N(C)[C@@H](CCCNC(=N)N)C(=O)N[C@@H](CO)C(=O)N[C@@H](CC(=O)O)C(=O)N[C@@H]([C@@H](C)O)C(=O)N[C@@H](CC(C)C)C(=O)N[C@H](C(=O)N[C@@H](Cc2ccc(C(=O)O)cc2)C(=O)N[C@@H](CCC(=O)O)C(=O)N[C@H](CCCCNC(=O)COCC(=O)NCCCC[C@@H](NC(=O)[C@H](CCC(=O)O)NC(=O)[C@H](Cc2ccc(C(=O)O)cc2)NC(=O)[C@H]2NC(=O)[C@H](CC(C)C)NC(=O)[C@H]([C@@H](C)O)NC(=O)[C@H](CC(=O)O)NC(=O)[C@H](CO)NC(=O)[C@H](CCCNC(=N)N)N(C)C(=O)[C@@H](NC(C)=O)C(C)(C)SSC2(C)C)C(N)=O)C(N)=O)C(C)(C)SSC1(C)C [compound 129] (I: Ac-[Pen][NMeR]SDTL[Pen][Phe(4-COOH)]E[dK]-NH2 / II: Ac-[Pen][NMeR]SDTL[Pen][Phe(4-COOH)]E[dK]-NH2; disulfide I:1-I:7, II:1-II:7; linker I:10-II:10 via Diglycolyl)	100 to 500 nM	> 6 h	< 10 nM					13 h
CC(=O)N[C@@H]1C(=O)N(C)[C@@H](CCCNC(=N)N)C(=O)N[C@@H](CO)C(=O)N[C@@H](CC(=O)O)C(=O)N[C@@H]([C@@H](C)O)C(=O)N[C@@H](CC(C)C)C(=O)N[C@H](C(=O)N[C@@H](Cc2ccc(C(C)(C)C)cc2)C(=O)N[C@@H](CCC(=O)O)CC(=O)N[C@H](CCCCN)C(N)=O)C(C)(C)SSC1(C)C [compound 153] (Ac-[Pen][NMeR]SDTL[Pen][Phe(4-tBu)][β3hE][dK]-NH2; disulfide 1-7)	1000 to 10000 nM		10 to 25 nM					13.6 h
CC(=O)N[C@H]1CSSC[C@@H](C(=O)NCC(=O)N[C@@H](CCC(=O)O)C(=O)N[C@@H](CCCCN)C(=O)O)NC(=O)[C@H](CC(C)C)NC(=O)[C@H]([C@@H](C)O)NC(=O)[C@H](CC(=O)O)NC(=O)[C@H](CO)NC(=O)[C@H](CCCNC(=N)N)N(C)C1=O [compound 199, Ac-C-N-Me-R-S-D-T-L-C-G-E-K-OH] (Ac-C[NMeR]SDTLCGEK-OH; disulfide 1-7)				> 100000 nM	0.45 h	4690 nM		
CC(=O)N[C@@H]1C(=O)N(C)[C@@H](CCCNC(=N)N)C(=O)N[C@@H](CO)C(=O)N[C@@H](CC(=O)O)C(=O)N[C@@H]([C@@H](C)O)C(=O)N[C@@H](CC(C)C)C(=O)N[C@H](C(=O)N[C@@H](Cc2ccc(C(C)(C)C)cc2)C(=O)N[C@@H](CCC(=O)O)CC(=O)O)C(C)(C)SSC1(C)C [compound 152] (Ac-[Pen][NMeR]SDTL[Pen][Phe(4-tBu)][β3hE]-OH; disulfide 1-7)	100 to 500 nM	2.45 h	< 10 nM					
CC(=O)N[C@@H]1C(=O)N(C)[C@@H](CCCNC(=N)N)C(=O)N[C@@H](CO)C(=O)N[C@@H](CC(=O)O)C(=O)N[C@@H]([C@@H](C)O)C(=O)N[C@@H](CC(C)C)C(=O)N[C@H](C(=O)N[C@@H](Cc2c[nH]c3ccccc23)C(=O)N[C@@H](CCC(=O)O)C(=O)N(C)[C@H](CCCCNC(=O)COCC(=O)NCCCC[C@H](C(N)=O)N(C)C(=O)[C@H](CCC(=O)O)NC(=O)[C@H](Cc2c[nH]c3ccccc23)NC(=O)[C@H]2NC(=O)[C@H](CC(C)C)NC(=O)[C@H]([C@@H](C)O)NC(=O)[C@H](CC(=O)O)NC(=O)[C@H](CO)NC(=O)[C@H](CCCNC(=N)N)N(C)C(=O)[C@@H](NC(C)=O)C(C)(C)SSC2(C)C)C(N)=O)C(C)(C)SSC1(C)C [compound 214, [Ac-Pen-(N-Me-Arg)-Ser-Asp-Thr-Leu-Pen-Trp-Glu-(N-Me-D-Lys)-NH2]2-DIG] (I: Ac-[Pen][NMeR]SDTL[Pen]WE[dNMeK]-NH2 / II: Ac-[Pen][NMeR]SDTL[Pen]WE[dNMeK]-NH2; disulfide I:1-I:7, II:1-II:7 (inferred); linker I:10-II:10 via Diglycolyl (inferred))				436 nM	> 13.5 h	2.5 nM		
